We go through 4 compounds from patent US11266149B2, “Herbicidal compositions” (University of Durham, priority 2016, dated 2022).

“Also recorded” adds a separate entry of the source.

Data set [1] concerns phenylalanine ammonia-lyase (PAL). The note with it: Buckwheat PAL inhibition; cited from earlier work.
Data set [2] has as its system Arabidopsis plants. The data set can be described thus: Spray treatment of Arabidopsis plants. Format: in vivo, Arabidopsis thaliana. Here is the method:
(§1) Plant material—Arabidopsis thaliana ecotype Columbia-0 was used in all experiments that utilised Arabidopsis. For spray experiments, many seeds were sown in compost inside pots with a base area of […]. The plants were treated with herbicide formulations by spraying when they were 2-3 weeks old. To obtain leaf discs, individual plants were sown in single pots and grown for 4 weeks. Leaf discs of 1-cm diameter were cored from fully expanded leaves. Glyphosate-resistant and susceptible biotypes of Conyza sumatrensis [(Retz.) E. Walker] were obtained from an olive grove in Italy. For spraying experiments, many plants were sown in compost inside pots with a base area of 81 cm^2. Plants were spray-treated at 2 weeks from sowing. For leaf disc experiments, individual plants were sown in single pots and grown for 8 weeks before coring 1-cm diameter leaf discs from fully expanded leaves. All plants were grown in a 16 h photoperiod (˜200 μmol·m^−2·s^−1) at 22° C.
(§2) Chemicals—Shikimic acid and pure glyphosate were purchased from Sigma-Aldrich (Dorset, UK). These were used to make stock solutions in water that were adjusted to pH 5.5 and used for treatment of leaf discs. Shikimate-3-phosphate trisodium salt was purchased from Santa Cruz Biotechnology (Dallas, Tex.). Gallup® 360 (Barclay Chemicals Manufacturing Ltd, Dublin, Ireland), a formulation of 360 g/L glyphosate, was used for spray treatments after diluting down to the desired rate.
(§3) Treatments—Leaf discs of 1 cm-diameter were cored from plants and floated on 10 mL solutions inside Petri dishes. A minimum of 5 replicate discs per treatment arising from 5 independent plants were used. For dark incubation, the Petri dishes were wrapped in aluminium foil to exclude light. Leaf discs were harvested at time-points indicated in the Figure legends for photographing or for shikimic acid analysis. For spray treatments, glyphosate was formulated in 3 mL with enough Gallup® to achieve the desired rate on a surface area of 36 cm^2 or 81 cm^2 pots. A commercial herbicide enhancer oil Activator-G™ (Agrigem Ltd., Market Rasen, UK) was added as an adjuvant to spray at a final rate of 1 L/ha. Shikimate-3-phosphate was added to a final concentration of 500 μM in the 3 mL. Control plants were sprayed with water containing Activator-G only.
Next we turned our attention to the inexplicable retardation of shikimate conversion to shikimate-3-phosphate during exposure to glyphosate. We proposed the hypothesis that shikimate-3-phosphate is a critical component required for glyphosate to be phytotoxic and that glyphosate-susceptible plants attempt to block its formation in order to avoid death. We sprayed 2-week-old Arabidopsis plants with a formulation of glyphosate at different rates with or without shikimate-3-phosphate as an additive. […]

The conditions of data set [3]: 25° C.; cited from earlier work.
Data set [4] relates to Conyza sumatrensis leaf discs. The data set can be described thus: Leaf discs floated on glyphosate solutions, phytotoxicity / cell death. Type of data set: cell-based. Here is the method: as §1, §2, §3
While studying programmed cell death, we noted that light is a crucial factor in the activation of plant cell death (Chivasa et al., 2009; Wang et al., 2012; Smith et al., 2014). We wondered if deprivation of light could also block glyphosate toxicity. To investigate this, we used a previously published in vitro assay (Teaster and Hoagland, 2013) in which leaf discs are floated over glyphosate solutions of desired concentration.

For data set [5], the system named is Arabidopsis shikimate pathway genes. The data set can be described thus: Quantitative real-time PCR of shikimate pathway genes in leaf discs. Type of data set: cell-based, Arabidopsis thaliana. Here is the method:
Gene expression analysis—RNA was extracted from leaf tissues using the Spectrum Plant Total RNA kit (Sigma-Aldrich) according to the manufacturer's instructions. Each sample was a pool of five 1 cm-diameter leaf discs arising from 5 independent plants. First strand cDNA synthesis was performed using 4 μg total RNA and oligod(T) using Promega (Southampton, UK) GoScript Reverse Transcription System. Quantitative real-time polymerase chain reaction was performed using SensiFast reagent kit (Bioline, London, UK) on a Rotorgene-Q (Qiagen, Crawley, UK). Each 20 μL reaction contained 10 μL SensiFast reagent, 5 μL cDNA template that had been diluted 1:8, and 8 pmoles each primer (forward and reverse primers). Cycling conditions used were as follows: denaturation at 95° C. for 2 mins followed by 40 cycles of 95° C. for 10 sec, annealing at 56° C. for 15 sec, and extension at 72° C. for 25 sec. Data analysis was performed using REST2009 (Qiagen, Crawley, UK) using ACTIN2 (At3g18780) and EIF4 (At3g13920) as reference control genes. Triplicate samples per treatment per time-point were analysed in order to calculate a mean and standard deviation.
Arabidopsis leaf discs were floated on 25 μM glyphosate solutions and incubated in light or total darkness. Samples were harvested at various intervals within 72 h of treatment for quantification of shikimic acid and analysis of gene expression using quantitative real-time PCR. […] All three DAPS genes were differentially regulated, only one of the five putative SK genes responded to glyphosate, both EPSPS genes were responsive, and the chorismate synthase (CS) genes responded as well (FIG. 6). Up-regulation of the shikimate pathway components triggered by blockading flux with glyphosate is a typical metabolic response.
Background: In qPCR the cycle at which signal appears reflects the starting amount.

Data set [6] concerns Glyphosate-resistant (GR) and susceptible (GS) C. sumatrensis plants. The data set can be described thus: Cut shoots placed in glyphosate solution with or without gluconic acid. Type of data set: in vivo, Conyza sumatrensis. The conditions noted are these: 100 μM glyphosate only, ten days (FIG. 8). Here is the method: Glyphosate-resistant (GR) and susceptible (GS) C. sumatrensis plants were germinated in soil and transferred to solutions of 100 μM glyphosate with or without 5 mM gluconic acid.
Because the pentose phosphate pathway gene GntK responds to glyphosate, we tested if intermediates in the pathway might also influence glyphosate toxicity (FIG. 8). Glyphosate resistant (GR) and glyphosate susceptible (GS) Conyza sumatrensis were germinated in soil and the shoots cut off at the base of the stem and placed in 2 mL of 100 μM glyphosate with or without gluconic acid at various concentrations. […] Cessation of growth and development of chlorosis are key hallmarks of glyphosate toxicity.

The test system of data set [7] is Conyza sumatrensis leaf discs. Briefly: Shikimic acid accumulation in leaf discs. Type of data set: cell-based. Here is the method: as §3
Shikimic acid analysis—Leaf discs floating on treatment solutions were blotted dry, added to microfuge tubes containing 125 μL of 0.25 N HCL before snap-freezing in liquid nitrogen and storing at −20° C. Samples were thawed at room temperature, vortexed for 5 min, and then incubated at 60° C. for 15 min. Aliquots of 25 μL were withdrawn and mixed with 100 μL of 0.25% (w/v) periodic acid/0.25% m-periodate in fresh microfuge tubes. After 30 min incubation at 37° C., 100 μL of 0.6 N NaOH/0.22 M Na2SO3 were added and the volume made up to 1 mL with distilled water. The shikimic acid in the samples was determined by spectrophotometric measurements at 382 nm against a reagent only blank and using a calibration curve of shikimic acid standards. The shikimic acid accumulating in response to glyphosate treatment was calculated as the difference between the reading from mock-treated control leaf discs and the glyphosate-treated discs. Values were expressed as μg/mL shikimic acid.

The subject of data set [8] is Arabidopsis leaf discs. Briefly: Shikimic acid accumulation in Arabidopsis leaf discs. Format: cell-based, Arabidopsis thaliana. The conditions noted are these: 25 μM glyphosate. Here is the method: as §3, with “Control plants were sprayed with water containing Activator-G only.” left out
Shikimic acid analysis—Leaf discs floating on treatment solutions were blotted dry, added to microfuge tubes containing 125 μL of 0.25 N HCL before snap-freezing in liquid nitrogen and storing at −20° C. […] The shikimic acid in the samples was determined by spectrophotometric measurements at 382 nm against a reagent only blank and using a calibration curve of shikimic acid standards. The shikimic acid accumulating in response to glyphosate treatment was calculated as the difference between the reading from mock-treated control leaf discs and the glyphosate-treated discs. Values were expressed as μg/mL shikimic acid. […]

Data set [9] concerns Galium mollugo cells. The note with it: glyphosate-treated Galium mollugo cells; cited from earlier work.
Where [10] appears, read: glyphosate, dark incubation (FIG. 6).
The mark [11] stands for this setting: glyphosate-treated leaf discs (FIG. 6).

With `NO[C@@H](Cc1ccccc1)C(=O)O` [L-α-aminooxy-β-phenylpropionic acid], the “phenylalanine accumulation, light versus dark” value in data set [1] is given as “three-fold higher phenylalanine accumulation in light than in the dark”.

Turning to `O=C([O-])C1=C[C@@H](OP(=O)([O-])[O-])[C@@H](O)[C@H](O)C1.[Na+].[Na+].[Na+]` [Shikimate-3-phosphate, Shikimate-3-phosphate trisodium salt], the “adverse effects on Arabidopsis” value in data set [2] (500 μM shikimate-3-phosphate on its own, spray (FIG. 7C)) is “did not have any adverse effects”.

On to `O=C(O)CNCP(=O)(O)O` [glyphosate, N-[phosphonomethyl] glycine], for which the solubility in water in data set [3] is recorded as 1.16 % by weight. Moreover, in data set [4] (1 mM glyphosate, dark incubation, 3 days (FIG. 2C)), the “phytotoxic effects at much higher glyphosate concentration” value is listed as “still requires light for phytotoxicity; also recorded: dark-incubation suppressed the phytotoxic effects”. In addition, in [4] (incubated in complete darkness, 100 μM glyphosate, 14 days (FIG. 2A)), the “phytotoxic effects of glyphosate on leaf discs” value is recorded as “protected from the phytotoxic effects”. For the same compound, in [4] (resistant biotype, 100 μM glyphosate on its own (FIG. 4A)), the “viability of leaf discs” value is “did not affect the viability”. Besides, in data set [4] (susceptible and resistant biotypes (FIG. 3)), the “shikimate accumulation and cell death by biotype” value was “activates shikimate accumulation and cell death in the susceptible, but not resistant biotype”. In addition, the “time until cell death (chlorosis, browning) easily visible” value in [4] (susceptible biotype, leaf discs floated on glyphosate) lay in the range of 10 to 14 days. Besides, in data set [5] (setting [10]), the “expression of At2g16790 in the dark” value is listed as “also stimulated in the dark” and the “glyphosate-induced stimulation of other genes in the dark” value is on record as “dark incubation suppressed glyphosate-induced stimulation”. For the same compound, the “expression of DAHPS, SK, EPSPS and CS genes” value in data set [5] (glyphosate, in light (FIG. 6)) is “significant changes in the expression”. Also, in [5] (setting [11]), the “change in gene expression of At2g16790” value is recorded as “over 30 fold” and the “change in gene expression of all other genes” value is “below 6 fold”. Besides, the “growth and chlorosis of GR plants” value in data set [6] (GR plants) is “have grown with expanded healthy and green leaves; also recorded: remained healthy and green”. In data set [6] (GS plants), the “growth and chlorosis of GS plants” value was “stunted and chlorotic; also recorded: stopped growing and developed chlorosis, which eventually led to tissue death”. Besides, the “shikimic acid accumulation in leaf tissues” value in data set [7] (continuous dark incubation (FIG. 2B)) is “suppressed shikimic acid accumulation”. In [7] (glyphosate 25-200 μM, one week (FIG. 3B)), the “shikimic acid level, susceptible versus resistant biotype” value is “significantly higher levels of shikimic acid than the resistant biotype”. The “shikimic acid concentration in leaf tissues” value in data set [7] (light-dark cycle, one week after treatment (FIG. 2B)) is listed as “massive rise”. Besides, the “maximum concentration of shikimic acid accumulating” value in data set [7] (susceptible C. sumatrensis, within 3 days of exposure to glyphosate) is 10 to 15 mM. In addition, in data set [8] (dark incubation (FIG. 5)), the shikimic acid accumulation result is “suppressed shikimic acid accumulation”. Moreover, the shikimic acid accumulation entry in data set [8] (incubated in light, within 72 h (FIG. 5)) is listed as “significant accumulation of shikimic acid”. Also, the “estimated cellular shikimic acid” value in data set [9] was 20 to 23 mM. The “symptoms after foliar application by spraying” value in data set [2] (2-week-old plants, Gallup 360 formulation (FIG. 7A)) is “causes chlorosis and then cell death of apical meristems”. Moreover, in data set [2] (glyphosate 18 g/ha, spray, 3 weeks (FIG. 7B)), the “effects on plant growth” value is reported as “no effects on plant growth”. In addition, the “effects on Arabidopsis” value in data set [2] (glyphosate 36 g/ha, spray, 3 weeks (FIG. 7B)) is reported as “very modest effects”.

As to `O=C(O)C1=C[C@@H](O)[C@@H](O)[C@H](O)C1` [shikimic acid, Shikimic acid], in [4] (with glyphosate, shikimic acid below 1-5 mM, 7 days (FIG. 4B)), the “breaking of glyphosate resistance at lower shikimic acid concentrations” value is “unable to”. Besides, the “shikimic acid concentrations able to break glyphosate resistance” value in [4] (with glyphosate, within 7 days of application (FIG. 4B)) fell in the range of 1 to 5 mM. For the same compound, the “phytotoxicity of shikimic acid on its own” value in [4] (without glyphosate, up to 15 mM) is listed as “not phytotoxic; also recorded: did not cause any phytotoxicity”.
